In assay [1] the test system is mesenteric resistance arteries of SHR. In words: Reactivity of isolated arteries: dilator effect during contraction induced by 40 mmol/L K+. Set-up: species or system Spontaneously Hypertensive Rats (SHR). The protocol: Segments of 2nd order mesenteric artery side branches were isolated from 14 weeks old male Spontaneously Hypertensive Rats (SHR). Two stainless-steel wires (diameter 40 μm) were inserted in the lumen of the arterial segments, which were then mounted in organ chambers between an isometric force transducer and a displacement device (Danish Myotechnology by J. P. Trading, Denmark). The organ chambers were filled with Krebs-Ringer bicarbonate solution which was maintained at 37° C. and continuously aerated with 95% O2 and 5% CO2. Before the actual experiments started, arterial segments were stretched to their individual optimal lumen diameter for mechanical performance, i.e. the diameter at which maximal contractile responses to noradrenaline (10 μmol/L) were obtained. In each experiment four second order mesenteric resistance arterial segments from one animal were mounted in individual organ chambers and studied in parallel. […]
For the analysis of the acute effects of the mixtures on K+-induced contraction, increasing concentrations of the mixtures (0.1-100 umol/L) were administered on top of the stable contractions and were left in contact with the arterial segments for 5-7 min to make sure that either no effect or a stable effect was reached. […] In this way, the effects of different exposure times to the mixtures (7, 30 and 90 min) on K+-induced contraction, could be evaluated. […]
Active wall tension (AWT) was calculated by subtracting the resting wall tension.
All contractile responses (AWT in the presence of stimuli, solvent and mixes of ingredients) were next expressed as a percentage of the contractile response (AWT) to 10 uM noradrenaline at the end of the normalisation period, i.e. before exposure of the arterial segments to solvent or mixes of ingredients.
Effects of increasing concentrations of the solvent and of the mixes (0.1 to 100 umol/L) during contractile responses to 40 mmol/L K+, were calculated as % change of the level of pre-contraction. […]

The conditions of assay [2]: meeting abstract of Experimental biology 2007; read-out: vasorelaxing properties, 50% dose; cited from earlier work.

These results are taken from patent US20090011103A1, “Composition comprising polyphenol” (Conopco, Inc. d/b/a Unilever, priority 2007, published 2009).

With `O=C(O)C=Cc1ccc(O)cc1` [p-coumaric acid, 3-(4-hydroxyphenyl)-2-prepenoic acid], the “influence on the dilation of the arteries” value in assay [1] (at a low concentration, by comparing the effect of different mixtures) is reported as “significant influence on the dilation of the arteries”. Further, the EC50 was 7.5 µM in assay [1] (isolated SHR mesenteric arteries, K+ (40 mmol/L) pre-contraction, deduced by comparing different mixtures (Plackett-Burman design), corrected for solvent, read-out: EC50 of dilation of the arteries) and 0.03 µM in assay [2]. The “concentration at which maximum dilatation was obtained” value in assay [1] (isolated SHR mesenteric arteries, K+ (40 mmol/L) pre-contraction, mixtures 0.1-100 umol/L) amounted to 100 µM.
